Laboratory results taken from patent publication US4550179A, “N-(1-Allyl-2-pyrrolidinyl-methyl) 2-methoxy-4-amino-5-methylsulfamoyl benzamide” (Societe d'Etudes Scientifiques et Industrielles de l'Ile-de …, priority 1980, dated 1985).

How the values were obtained:
mouse [1] = assay: spontaneous motility of mouse, WINTER & FLATAKER method; assay type: in vivo
Excerpt: The researchers were looking for the effects of the benzamide on the central nervous system and particularly for any neuroleptic action.
(§1) Spontaneous motility of mouse:
(§2) inhibiting effect observed at
(§3) maximum dose administered
(§4) Adminis- WINTER & Activograph

mouse [2] = assay: spontaneous motility of mouse, Activograph method; assay type: in vivo; details: read-out: inhibiting effect on spontaneous motility at maximum dose administered
Excerpt: as §1, §2, §3, §4

histamine [3] = assay: interaction with histamine, arterial pressure of anaesthetised dog; assay type: in vivo
Excerpt: (§5) Finally, researchers looked for interaction between the benzamide according to the invention and histamine, in the arterial pressure of an anaesthetised dog and the isolated ileum of a guinea pig.

serotonin [4] = assay: hypertensive response to serotonin, anaesthetised dog treated with chlorisondamine; assay type: in vivo
Excerpt: (§6) The effects of the benzamide on the cardiovascular system were studied in a dog anaesthetised with chloralose, with the following results:
% inhibition of hypertension after […]

[5] = anticonvulsive action (electric shock, pentetrazol, nicotine, auditory stimulus); assay type: in vivo; details: nicotine or auditory stimulus
serotonin [6] = assay: gastric ulcer producing effect of serotonin in the rat; assay type: in vivo; details: sc, subcutaneously, read-out: effective dose 50 (protection against gastric ulcer producing effect of serotonin)
nicotine = assay: hypertensive response to nicotine (orthosympathetic component), anaesthetised dog; assay type: in vivo; details: for % reduction of orthosympathetic component (R): nicotine
Excerpt: (§7) The effects of the benzamide on the cardiovascular system were studied in a dog anaesthetised with chloralose, with the following results: […]

isolated ileum = assay: anticholinergic action in vitro on isolated ileum; details: isolated ileum of guinea pig
rat = assay: stereotypic movements of the rat caused by dopaminergic agonists (apomorphine or amphetamine); assay type: in vivo
adrenalin = assay: hypertensive response to adrenalin, anaesthetised dog; assay type: in vivo; details: for % reduction relative to control hypertension (R): adrenalin
Excerpt: as §7

cerebral arteries = assay: cerebral haemodynamics of migraine patients (pulsatility of cerebral arteries); assay type: in vivo
Description: The first clinical pharmacological investigation consisted of exploring the cerebral haemodynamics of migraine patients by a non-invasive method, through recording the pulsatility of the cerebral arteries. […] Graphs were thus plotted after the benzamide according to the invention had been absorbed by migraine patients.
This is maintained under treatment with repeated doses (150 mg/day) given orally for 3 weeks.

mouse [7] = assay: analgesic action, pain caused by mechanical, chemical or heat stimulus; assay type: in vivo; details: single dose
Excerpt: The analgesic action of the benzamide, in a single dose, is weak in respect of the pain caused in a mouse by a mechanical, chemical or heat stimulus.

migraine [8] = assay: comparative crossed double blind study versus oxetorone in migraine; assay type: in vivo; details: 63 migraine patients, 150 mg per day vs oxetorone 120 mg, 30 days
Excerpt: (1) A comparative study, by a crossed double blind method, the reference product being oxetorone, which is medically known, applied to migraine. The study covered 63 migraine patients, the two treatments being applied for 30 days with an adequate interruption between sequences.

isolated uterus = assay: serotonin-induced contraction of isolated uterus; details: isolated uterus of a rat, contraction produced by serotonin
Description: inhibited contraction of the isolated uterus of a rat, produced by serotonin. The contraction inhibiting dose 50 is of the order of 0.2 mg/l.

migraine [9] = assay: comparative study with Pizotifene in migraine; assay type: in vivo; details: 17 migraine patients, 150 mg per day orally
Description: (2) A comparative study with Pizotifene, an anti-histamine and antiserotonin compound which is also used in the basic treatment for migraine.
The study covered 17 patients suffering true attacks of migraine of regular frequency, which thus enabled the effectiveness of the treatment to be assessed from the number and intensity of attacks during a period of one month.
The benzamide according to the invention was applied orally in a dose of 150 mg per day, in three times. The Pizotifene was also administered orally, with the progressive dosage recommended for the product (0.73 mg×1 for 3 days-0.73 mg×2 for 3 days-0.73 mg×3 for 24 days).
The patients were distributed at random between the treatments.

noradrenalin = assay: hypertensive response to noradrenalin, anaesthetised dog; assay type: in vivo; details: for % reduction relative to control hypertension (R): noradrenalin
Excerpt: as §6
Noradrenalin 0.5 R = 21%

[10] = tested on: hypotensive response to acetylcholine or to excitation of the vagus nerve; assay: hypotensive response to acetylcholine or excitation of the vagus nerve, anaesthetised dog; assay type: in vivo
Excerpt: as §7

histamine [11] = assay: interaction with histamine, isolated ileum of guinea pig
Excerpt: as §5

arterial pressure = arterial pressure in dog anaesthetised with chloralose; assay type: in vivo
Excerpt: as §6
Variations in arterial pressure
(mg/kg/I.V.) relative to initial pressure

migraine [12] = assay: open investigation in migraine out-patients; assay type: in vivo; details: 150 mg per day orally in 3 doses
Description: (3) An open investigation covering 80 patients, who were followed in out-patient treatment with 150 mg of benzamide per day, given orally in 3 doses: […]

[13] = BATCH 1, 1 mg/kg I.V., serotonin 37.5 μg/kg I.V.
[14] = BATCH 1, 5 mg/kg I.V., serotonin 25 μg/kg I.V.
[15] = BATCH 2, 1 mg/kg I.V., serotonin 25 μg/kg I.V.
[16] = BATCH 2, 5 mg/kg I.V., serotonin 25 μg/kg I.V.

C=CCN1CCCC1CNC(=O)c1cc(S(=O)(=O)NC)c(N)cc1OC (centres unmarked) [Benzamide according to the invention, N-(1-allyl-2-pyrrolidinyl-methyl)2-methoxy-4-amino-5-methylsulfamoyl benzamide]
inhibition at 80 mg/kg (mouse [1]; Mus musculus, ip, I.P., 80 mg/kg, WINTER & FLATAKER method, read-out: inhibiting effect on spontaneous motility at maximum dose administered): 26%
inhibition at 300 mg/kg (mouse [1]; Mus musculus, po, P.O., 300 mg/kg, WINTER & FLATAKER method, read-out: inhibiting effect on spontaneous motility at maximum dose administered): 20%
reduction of spontaneous motility (mouse [1]; mouse, even in high doses): only very slightly reduces the spontaneous motility of the mouse
depressive action (central nervous system) (mouse [1]; mouse, in vivo): very little depressive action
inhibition at 80 mg/kg (mouse [2]; ip, I.P., 80 mg/kg): 22%
inhibition at 300 mg/kg (mouse [2]; po, P.O., 300 mg/kg): 25%
anti-histamine properties (histamine [3]): No anti-histamine properties were revealed
% inhibition of hypertension after 3 mn (serotonin [4]; [13]): 22%
% inhibition of hypertension after 30 mn (serotonin [4]; [13]): 8%
% inhibition of hypertension after 3 mn (serotonin [4]; [14]): 62%
% inhibition of hypertension after 30 mn (serotonin [4]; [14]): 63%
% inhibition of hypertension after 1 h (serotonin [4]; [14]): 51%
% inhibition of hypertension after 1 h 30 (serotonin [4]; [14]): 51%
% inhibition of hypertension after 2 h (serotonin [4]; [14]): 40%
% inhibition of hypertension after 3 mn (serotonin [4]; [15]): 36%
% inhibition of hypertension after 30 mn (serotonin [4]; [15]): 11%
% inhibition of hypertension after 1 h (serotonin [4]; [15]): 0%
% inhibition of hypertension after 3 mn (serotonin [4]; [16]): 78%
% inhibition of hypertension after 30 mn (serotonin [4]; [16]): 65%
% inhibition of hypertension after 1 h (serotonin [4]; [16]): 48%
% inhibition of hypertension after 1 h 30 (serotonin [4]; [16]): 43%
% inhibition of hypertension after 2 h (serotonin [4]; [16]): 33%
% inhibition of hypertension after 3 h (serotonin [4]; BATCH 2, 5 mg/kg I.V., serotonin 25 μg/kg I.V., 3 h): 33%
hypertensive response to serotonin (serotonin [4]; anaesthetised dog, chlorisondamine): reduces the hypertensive response to serotonin
anticonvulsive action [5]: no anticonvulsive action
ED50 (serotonin [6]): ~3 mg/kg
hypertensive responses caused by small doses of nicotine (nicotine; anaesthetised dog): reduces the hypertensive responses
% reduction of orthosympathetic component (R) (nicotine; cumulative dose 0.5 mg/kg I.V.): 0%
% reduction of orthosympathetic component (R) (nicotine; cumulative dose 1 mg/kg I.V.): 0%
% reduction of orthosympathetic component (R) (nicotine; cumulative dose 2 mg/kg I.V.): 0%
% reduction of orthosympathetic component (R) (nicotine; cumulative dose 4 mg/kg I.V.): 0%
% reduction of orthosympathetic component (R) (nicotine; cumulative dose 8 mg/kg I.V.): 0%
% reduction of orthosympathetic component (R) (nicotine; cumulative dose 16 mg/kg I.V.): 49%
% reduction of orthosympathetic component (R) (nicotine; cumulative dose 32 mg/kg I.V.): 79%
anticholinergic action (isolated ileum): no anticholinergic action
counteraction of stereotypic movements (rat): does not counteract the stereotypic movements of the rat
% reduction relative to control hypertension (R) (adrenalin; cumulative dose 0.5 mg/kg I.V.): 5%
% reduction relative to control hypertension (R) (adrenalin; cumulative dose 1 mg/kg I.V.): 3%
% reduction relative to control hypertension (R) (adrenalin; cumulative dose 2 mg/kg I.V.): 4%
% reduction relative to control hypertension (R) (adrenalin; cumulative dose 4 mg/kg I.V.): 21%
% reduction relative to control hypertension (R) (adrenalin; cumulative dose 8 mg/kg I.V.): 40%
% reduction relative to control hypertension (R) (adrenalin; cumulative dose 16 mg/kg I.V.): 68%
% reduction relative to control hypertension (R) (adrenalin; cumulative dose 32 mg/kg I.V.): 84%
hypertensive responses caused by adrenalin (adrenalin; anaesthetised dog): reduces the hypertensive responses
maintenance of graph normalisation (cerebral arteries; repeated doses 150 mg/day orally for 3 weeks): maintained
graph of cerebral artery pulsatility (cerebral arteries; single 100 mg intramuscular injection): the graph moves towards normalisation in 2 hours
analgesic action (mouse [7]): weak
therapeutic effectiveness and tolerance versus oxetorone (migraine [8]): statistically superior to oxetorone
contraction inhibiting dose 50 (isolated uterus): ~0.2 mg/L
effectiveness versus Pizotifene (migraine [9]): more effective than the second reference compound
hypertensive responses caused by noradrenalin (noradrenalin; anaesthetised dog): reduces the hypertensive responses
% reduction relative to control hypertension (R) (noradrenalin; cumulative dose 0.5 mg/kg I.V.): 21%
% reduction relative to control hypertension (R) (noradrenalin; cumulative dose 1 mg/kg I.V.): 13%
% reduction relative to control hypertension (R) (noradrenalin; cumulative dose 2 mg/kg I.V.): 30%
% reduction relative to control hypertension (R) (noradrenalin; cumulative dose 4 mg/kg I.V.): 30%
% reduction relative to control hypertension (R) (noradrenalin; cumulative dose 8 mg/kg I.V.): 40%
% reduction relative to control hypertension (R) (noradrenalin; cumulative dose 16 mg/kg I.V.): 49%
% reduction relative to control hypertension (R) (noradrenalin; cumulative dose 32 mg/kg I.V.): 66%
hypotensive response to acetylcholine or to excitation of the vagus nerve [10]: does not change the hypotensive response
anti-histamine properties (histamine [11]): No anti-histamine properties were revealed
Variations in arterial pressure relative to initial pressure (arterial pressure; cumulative dose 0.5 mg/kg I.V.): -21%
Variations in arterial pressure relative to initial pressure (arterial pressure; cumulative dose 1 mg/kg I.V.): -32%
Variations in arterial pressure relative to initial pressure (arterial pressure; cumulative dose 2 mg/kg I.V.): -36%
Variations in arterial pressure relative to initial pressure (arterial pressure; cumulative dose 4 mg/kg I.V.): -48%
Variations in arterial pressure relative to initial pressure (arterial pressure; cumulative dose 8 mg/kg I.V.): -54%
Variations in arterial pressure relative to initial pressure (arterial pressure; cumulative dose 16 mg/kg I.V.): -59%
Variations in arterial pressure relative to initial pressure (arterial pressure; cumulative dose 32 mg/kg I.V.): -58%
arterial pressure (arterial pressure; dog anaesthetised with chloralose): drop in arterial pressure proportional to the dose administered
remission in particularly severe cases of "accompanied" migraines (migraine [12]): the remission transformed the social life of the patient
General tolerance of the treatment (migraine [12]; 80 patients): very satisfactory
success (migraine [12]; 80 patients): 79%
